Drawing on BindingDB's records for doi:10.1016/j.bmc.2008.07.037 (Merck Research Laboratories, 2008), this text covers EC50 for 17 molecules.

The EC50 is the midpoint of the concentration-response curve.

Each structure is given as a SMILES string.

The nature of this test: Inhibition of glucocorticoid-mediated human MMP1 expression in PMA stimulated A549 cells assessed as MMP1 protein level by ELISA. (In general: ELISA stands for enzyme-linked immunosorbent assay.)
In the case of `C[C@H]1C[C@H]2[C@@H]3CCC4=CC(=O)C=C[C@]4(C)[C@@]3(F)[C@@H](O)C[C@]2(C)[C@@]1(OC(=O)NC(C)(C)CC(C)(C)C)C(=O)CO` [(8S,9R,10S,11S,13S,14S,16S,17R)-9-fluoro-11-hydroxy-17-(2-hydroxyacetyl)-10,13,16-trimethyl-3-oxo-6,7,8,9,10,11,12,13,14,15,16,17-dodecahydro-3H-cyclopenta[a]phenanthren-17-yl 2,4,4-trimethylpentan-2-ylcarbamate], the EC50 turned out to be 23.2 nM.
In the case of `C[C@H]1C[C@H]2[C@@H]3CCC4=CC(=O)C=C[C@]4(C)[C@@]3(F)[C@@H](O)C[C@]2(C)[C@@]1(OC(=O)NCCC(C)(C)C)C(=O)CO` [(8S,9R,10S,11S,13S,14S,16S,17R)-9-fluoro-11-hydroxy-17-(2-hydroxyacetyl)-10,13,16-trimethyl-3-oxo-6,7,8,9,10,11,12,13,14,15,16,17-dodecahydro-3H-cyclopenta[a]phenanthren-17-yl 3,3-dimethylbutylcarbamate], the EC50 worked out at 21 nM.
With `C[C@H]1C[C@H]2[C@@H]3CCC4=CC(=O)C=C[C@]4(C)[C@@]3(F)[C@@H](O)C[C@]2(C)[C@@]1(OC(=O)NC1CCCCC1)C(=O)CO` [(8S,9R,10S,11S,13S,14S,16S,17R)-9-fluoro-11-hydroxy-17-(2-hydroxyacetyl)-10,13,16-trimethyl-3-oxo-6,7,8,9,10,11,12,13,14,15,16,17-dodecahydro-3H-cyclopenta[a]phenanthren-17-yl cyclohexylcarbamate] the figure was 1.3 nM; with `C[C@H]1C[C@H]2[C@@H]3CCC4=CC(=O)C=C[C@]4(C)[C@@]3(F)[C@@H](O)C[C@]2(C)[C@@]1(OC(=O)NCC(C)(C)C)C(=O)CO` [(8S,9R,10S,11S,13S,14S,16S,17R)-9-fluoro-11-hydroxy-17-(2-hydroxyacetyl)-10,13,16-trimethyl-3-oxo-6,7,8,9,10,11,12,13,14,15,16,17-dodecahydro-3H-cyclopenta[a]phenanthren-17-yl neopentylcarbamate], 0.1 nM.
Regarding `CCCCCNC(=O)O[C@]1(C(=O)CO)[C@@H](C)C[C@H]2[C@@H]3CCC4=CC(=O)C=C[C@]4(C)[C@@]3(F)[C@@H](O)C[C@@]21C` [(8S,9R,10S,11S,13S,14S,16S,17R)-9-fluoro-11-hydroxy-17-(2-hydroxyacetyl)-10,13,16-trimethyl-3-oxo-6,7,8,9,10,11,12,13,14,15,16,17-dodecahydro-3H-cyclopenta[a]phenanthren-17-yl pentylcarbamate], the EC50 amounted to 18 nM.
With `CCC(C)NC(=O)O[C@]1(C(=O)CO)[C@@H](C)C[C@H]2[C@@H]3CCC4=CC(=O)C=C[C@]4(C)[C@@]3(F)[C@@H](O)C[C@@]21C` (stereo partly drawn) [(8S,9R,10S,11S,13S,14S,16S,17R)-9-fluoro-11-hydroxy-17-(2-hydroxyacetyl)-10,13,16-trimethyl-3-oxo-6,7,8,9,10,11,12,13,14,15,16,17-dodecahydro-3H-cyclopenta[a]phenanthren-17-yl sec-butylcarbamate], the 50% effective concentration (EC50) came out at 0.8 nM.
As to `CCC(C)(C)NC(=O)O[C@]1(C(=O)CO)[C@@H](C)C[C@H]2[C@@H]3CCC4=CC(=O)C=C[C@]4(C)[C@@]3(F)[C@@H](O)C[C@@]21C` [(8S,9R,10S,11S,13S,14S,16S,17R)-9-fluoro-11-hydroxy-17-(2-hydroxyacetyl)-10,13,16-trimethyl-3-oxo-6,7,8,9,10,11,12,13,14,15,16,17-dodecahydro-3H-cyclopenta[a]phenanthren-17-yl tert-pentylcarbamate], the EC50 came out at 53.3 nM.
With `COC(=O)[C@H](C)NC(=O)O[C@]1(C(=O)CO)[C@@H](C)C[C@H]2[C@@H]3CCC4=CC(=O)C=C[C@]4(C)[C@@]3(F)[C@@H](O)C[C@@]21C` [(11beta,16beta)-9-Fluoro-11,21-dihydroxy-16-methyl-3,20-dioxopregna-1,4-dien-17-yl (1S)-1-(methoxycarbonyl)-ethylcarbamate] the figure was 83 nM; with `C[C@H](NC(=O)O[C@]1(C(=O)CO)[C@@H](C)C[C@H]2[C@@H]3CCC4=CC(=O)C=C[C@]4(C)[C@@]3(F)[C@@H](O)C[C@@]21C)c1ccccc1` [(11beta,16beta)-9-Fluoro-11,21-dihydroxy-16-methyl-3,20-dioxopregna-1,4-dien-17-yl (1S)-1-phenylethylcarbamate], 4.9 nM; with `C=CCNC(=O)O[C@]1(C(=O)CO)[C@@H](C)C[C@H]2[C@@H]3CCC4=CC(=O)C=C[C@]4(C)[C@@]3(F)[C@@H](O)C[C@@]21C` [(11beta,16beta)-9-Fluoro-11,21-dihydroxy-16-methyl-3,20-dioxopregna-1,4-dien-17-yl allylcarbamate], 39 nM.
With `CCCCNC(=O)O[C@]1(C(=O)CO)[C@@H](C)C[C@H]2[C@@H]3CCC4=CC(=O)C=C[C@]4(C)[C@@]3(F)[C@@H](O)C[C@@]21C` [(11beta,16beta)-9-Fluoro-11,21-dihydroxy-16-methyl-3,20-dioxopregna-1,4-dien-17-yl butylcarbamate] the figure was 22 nM.
Then `C[C@H]1C[C@H]2[C@@H]3CCC4=CC(=O)C=C[C@]4(C)[C@@]3(F)[C@@H](O)C[C@]2(C)[C@@]1(OC(=O)NC1CCCC1)C(=O)CO` [(11beta,16beta)-9-Fluoro-11,21-dihydroxy-16-methyl-3,20-dioxopregna-1,4-dien-17-yl cyclopentylcarbamate], with 2.8 nM.
In the case of `CCNC(=O)O[C@]1(C(=O)CO)[C@@H](C)C[C@H]2[C@@H]3CCC4=CC(=O)C=C[C@]4(C)[C@@]3(F)[C@@H](O)C[C@@]21C` [(11beta,16beta)-9-Fluoro-11,21-dihydroxy-16-methyl-3,20-dioxopregna-1,4-dien-17-yl ethylcarbamate], the concentration for a half-maximal effect (EC50) is 15.9 nM.
With `CC(C)NC(=O)O[C@]1(C(=O)CO)[C@@H](C)C[C@H]2[C@@H]3CCC4=CC(=O)C=C[C@]4(C)[C@@]3(F)[C@@H](O)C[C@@]21C` [(11beta,16beta)-9-Fluoro-11,21-dihydroxy-16-methyl-3,20-dioxopregna-1,4-dien-17-yl isopropylcarbamate] the figure was 1.9 nM; with `CCCNC(=O)O[C@]1(C(=O)CO)[C@@H](C)C[C@H]2[C@@H]3CCC4=CC(=O)C=C[C@]4(C)[C@@]3(F)[C@@H](O)C[C@@]21C` [(11beta,16beta)-9-Fluoro-11,21-dihydroxy-16-methyl-3,20-dioxopregna-1,4-dien-17-yl propylcarbamate], 18.7 nM; with `C[C@H]1C[C@H]2[C@@H]3CCC4=CC(=O)C=C[C@]4(C)[C@@]3(F)[C@@H](O)C[C@]2(C)[C@@]1(OC(=O)NC(C)(C)C)C(=O)CO` [(11beta,16beta)-9-Fluoro-11,21-dihydroxy-16-methyl-3,20-dioxopregna-1,4-dien-17-yl tert-butylcarbamate], 1.6 nM.
Then `C[C@H]1C[C@H]2[C@@H]3CCC4=CC(=O)C=C[C@]4(C)[C@@]3(F)[C@@H](O)C[C@]2(C)[C@@]1(OC(=O)NC12CC3CC(CC(C3)C1)C2)C(=O)CO` [Adamantan-1-yl-carbamic acid (8S,9R,10S,11S,13S,14S,16S,17R)-9-fluoro-11-hydroxy-17-(2-hydroxy-acetyl)-10,13,16-trimethyl-3-oxo-6,7,8,9,10,11,12,13,14,15,16,17-dodecahydro-3H-cyclopenta[a]phenanthren-17-yl este], with 3.4 nM.
